Experimental data taken from patent US7022694B2, “Indoles and indolines having 5-HT activity” (Pharmacia & UpJohn Company, priority 2001, dated 2006).

With `CN1CCc2ccc3cc[nH]c3c2CC1` the melting point was 150 to 153 °C.
For `c1cnc2c(OCCn3ccc4ccc5c(c43)CCNCC5)cccc2c1` [Example 6, 1-[2-(8-Quinolinyloxy)ethyl]-1,6,7,8,9,10-hexahydroazepino[4,5-g]indole], the melting point was 129 to 132 °C.
